According to PubChem BioAssay AID2060343 (Molecular Pharmacology Branch, DTP, NCI, 2025):
pIC50: −log10 of the molar value.

Test system: 138582-337-R-J1-PDC spheroids with HUVEC/MSC, viability
Experiment: Anticancer human tumor 138582-337-R-J1-PDC patient-derived Merkel cell tumor cell line growth inhibition [IpAb]
Conditions: for pIC50: curve of first compound; for viability, T/C: stronger effect = lower value
How it was run: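 Multi-cell spheroids of 60% tumour cells, 25% HUVEC and 15% MSC in ultra-low-attachment U-bottom wells, treated with agents combined with ipatasertib or abemaciclib. Half-log ranges top out near clinical Cmax, or 10 microM when Cmax is unknown.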

[1] = second compound 0.01 µM, first compound 0.0316 µM
[2] = second compound 0.01 µM, first compound 0.1 µM
[3] = second compound 0.01 µM, first compound 0.316 µM
[4] = second compound 0.01 µM, first compound 1 µM
[5] = second compound 0.01 µM, first compound 3.16 µM
[6] = second compound 0.01 µM, first compound 10 µM
[7] = second compound 0.0316 µM, first compound 0.0316 µM
[8] = second compound 0.0316 µM, first compound 0.1 µM
[9] = second compound 0.0316 µM, first compound 0.316 µM
[10] = second compound 0.0316 µM, first compound 1 µM
[11] = second compound 0.0316 µM, first compound 3.16 µM
[12] = second compound 0.0316 µM, first compound 10 µM
[13] = second compound 0.1 µM, first compound 0.0316 µM
[14] = second compound 0.1 µM, first compound 0.1 µM
[15] = second compound 0.1 µM, first compound 0.316 µM
[16] = second compound 0.1 µM, first compound 1 µM
[17] = second compound 0.1 µM, first compound 3.16 µM
[18] = second compound 0.1 µM, first compound 10 µM
[19] = second compound 0.316 µM, first compound 0.0316 µM
[20] = second compound 0.316 µM, first compound 0.1 µM
[21] = second compound 0.316 µM, first compound 0.316 µM
[22] = second compound 0.316 µM, first compound 1 µM
[23] = second compound 0.316 µM, first compound 3.16 µM
[24] = second compound 0.316 µM, first compound 10 µM
[25] = second compound 1 µM, first compound 0.0316 µM
[26] = second compound 1 µM, first compound 0.1 µM
[27] = second compound 1 µM, first compound 0.316 µM
[28] = second compound 1 µM, first compound 1 µM
[29] = second compound 1 µM, first compound 3.16 µM
[30] = second compound 1 µM, first compound 10 µM
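Note: spheroids exposed to compounds for seven days.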
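Throughout, for viability, T/C: 100% = DMSO vehicle control viability.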

Cc1nc(NC(=O)N2CCCC2C(N)=O)sc1-c1ccnc(C(C)(C)C(F)(F)F)c1 (stereo not given) + CCN1CCN(Cc2ccc(Nc3ncc(F)c(-c4cc(F)c5nc(C)n(C(C)C)c5c4)n3)nc2)CC1 showed a pIC50 (second compound 0.01 µM) of 5.73, a pIC50 (second compound 0.0316 µM) of 5.85 and a pIC50 (second compound 0.1 µM) of 5.94. The pIC50 (second compound 0.316 µM) was 6.00, the pIC50 (second compound 1 µM) was 6.34 and the viability, T/C [1] was 95.2%. The viability, T/C [2] was 81.4%, the viability, T/C [3] was 73.2% and the viability, T/C [4] was 59%. It also gave a viability, T/C [5] of 45.4%, a viability, T/C [6] of 13.7% and a viability, T/C [7] of 94.1%. For the same compound, the viability, T/C [8] was 82.3%, the viability, T/C [9] was 69% and the viability, T/C [10] was 55.4%. For the same compound, the viability, T/C [11] was 40.1%, the viability, T/C [12] was 18.2% and the viability, T/C [13] was 88.1%. For the same compound, the viability, T/C [14] was 78.7%, the viability, T/C [15] was 59.2% and the viability, T/C [16] was 56.4%. For the same compound, the viability, T/C [17] was 35.2%, the viability, T/C [18] was 9.25% and the viability, T/C [19] was 90.8%. For the same compound, the viability, T/C [20] was 74.8%, the viability, T/C [21] was 69.7% and the viability, T/C [22] was 48.2%. The viability, T/C [23] was 32.1%, the viability, T/C [24] was 6.45% and the viability, T/C [25] was 89.3%. It also gave a viability, T/C [26] of 84.2%, a viability, T/C [27] of 54.4% and a viability, T/C [28] of 35.1%. For the same compound, the viability, T/C [29] was 10.7% and the viability, T/C [30] was 1.63%.
Cn1nccc1Nc1nccc(-c2ccn(C(CO)c3ccc(Cl)c(F)c3)c(=O)c2)n1 (stereo not given) + CCN1CCN(Cc2ccc(Nc3ncc(F)c(-c4cc(F)c5nc(C)n(C(C)C)c5c4)n3)nc2)CC1 showed a pIC50 (second compound 0.01 µM) of under 5.00, a pIC50 (second compound 0.0316 µM) of under 5.00 and a pIC50 (second compound 0.1 µM) of under 5.00. It also gave a pIC50 (second compound 0.316 µM) of under 5.00, a pIC50 (second compound 1 µM) of under 5.00 and a viability, T/C [1] of 99.8%. It also gave a viability, T/C [2] of 92.3%, a viability, T/C [3] of 90.1% and a viability, T/C [4] of 94.8%. The viability, T/C [5] was 107%, the viability, T/C [6] was 154% and the viability, T/C [7] was 88.3%. It also gave a viability, T/C [8] of 90.5%, a viability, T/C [9] of 82.7% and a viability, T/C [10] of 91.9%. For the same compound, the viability, T/C [11] was 107%, the viability, T/C [12] was 149% and the viability, T/C [13] was 79.9%. The viability, T/C [14] was 89.8%, the viability, T/C [15] was 79.6% and the viability, T/C [16] was 90.2%. The viability, T/C [17] was 108%, the viability, T/C [18] was 134% and the viability, T/C [19] was 89.8%. For the same compound, the viability, T/C [20] was 82.7%, the viability, T/C [21] was 88.6% and the viability, T/C [22] was 96%. For the same compound, the viability, T/C [23] was 124%, the viability, T/C [24] was 173% and the viability, T/C [25] was 106%. For the same compound, the viability, T/C [26] was 96%, the viability, T/C [27] was 83.2% and the viability, T/C [28] was 97.6%. The viability, T/C [29] was 142% and the viability, T/C [30] was 178%.
